# Test results as given in US9133104B2 (Chroma Therapeutics Ltd., priority 2005, dated 2015).
# pIC50: −log10 of the molar value.
# Key:
# Hela cancer cell line = assay: Cell inhibition assay (SRB cell viability), Hela; type: cell-based; details: 72 h, Hela cells, IC50 range
# Description: (§1) The corresponding cancer cell lines (Hela, U937 and HUT) growing in log phase were harvested and seeded at 1000 cells/well (200 ul final volume) into 96-well tissue culture plates. Following 24 h of cell growth cells were treated with compounds (final concentration of 20 uM). Plates were then re-incubated for a further 72 h before a sulphorhodamine B (SRB) cell viability assay was conducted according to Skehan 1990 J Natl Canc Inst 82, 1107-1112.
# (§2) Data were expressed as a percentage inhibition of the control, measured in the absence of inhibitor, as follows:— % inhibition=100−((S^i/S^o)×100) where S^i is the signal in the presence of inhibitor and S^o is the signal in the presence of DMSO. IC50 values were determined by non-linear regression analysis, after fitting the results of eight data points to the equation for sigmoidal dose response with variable slope (% activity against log concentration of compound), using Graphpad Prism software. […] NT=Not tested
# HUT cancer cell line = assay: Cell inhibition assay (SRB cell viability), HUT; type: cell-based; details: HUT cells, 72 h, IC50 range
# Description: as §1, §2
# [1] = target: T1, histone deacetylase activity (HeLa nuclear extract); assay: HDAC fluorescent activity assay (Biomol Fluor de Lys), HeLa nuclear extract; type: biochemical; details: Fluor de Lys substrate, IC50 range
# T1 construct: Histone deacetylase activity from crude nuclear extract derived from HeLa cells was used for screening
# Description: The ability of compounds to inhibit histone deacetylase activities was measured using the commercially available HDAC fluorescent activity assay from Biomol. In brief, the Fluor de Lys™ substrate, a lysine with an epsilon-amino acetylation, is incubated with the source of histone deacetylase activity (HeLa nuclear extract) in the presence or absence of inhibitor. Deacetylation of the substrate sensitises the substrate to Fluor de Lys™ developer, which generates a fluorophore. Thus, incubation of the substrate with a source of HDAC activity results in an increase in signal that is diminished in the presence of an HDAC inhibitor.
# Data are expressed as a percentage of the control, measured in the absence of inhibitor, with background signal being subtracted from all samples, as follows:— % activity=((S^i−B)/(S^o−B))×100 where S^i is the signal in the presence of substrate, enzyme and inhibitor, S^o is the signal in the presence of substrate, enzyme and the vehicle in which the inhibitor is dissolved, and B is the background signal measured in the absence of enzyme.
# IC50 values were determined by non-linear regression analysis, after fitting the results of eight data points to the equation for sigmoidal dose response with variable slope (% activity against log concentration of compound), using Graphpad Prism software.
# Histone deacetylase activity from crude nuclear extract derived from HeLa cells was used for screening. The preparation, purchased from 4C (Seneffe, Belgium), was prepared from HeLa cells harvested whilst in exponential growth phase. The nuclear extract is prepared according to Dignam JD1983 Nucl. Acid. Res. 11, 1475-1489, snap frozen in liquid nitrogen and stored at −80° C. The final buffer composition was 20 mM Hepes, 100 mM KCl, 0.2 mM EDTA, 0.5 mM DTT, 0.2 mM PMSF and 20% (v/v) glycerol.
# U937 cancer cell line = assay: Cell inhibition assay (SRB cell viability), U937; type: cell-based; details: Homo sapiens, U-937, U937 cells, 72 h, IC50 range
# Description: as §1, §2
SMILES,"pIC50 (Hela cancer cell line; Homo sapiens, HeLa)",pIC50 (HUT cancer cell line),pIC50 [1],pIC50 (U937 cancer cell line),pIC50 (Hela cancer cell line)
"CC(C)(C)OC[C@H](NCc1cccc(NC(=O)CCCCCCC(=O)NO)c1)C(=O)OC1CCCC1 [Compound 34, (S)-3-tert-Butoxy-2-[3-(7-hydroxycarbamoyl-heptanoylamino)-benzylamino]-propionic acid cyclopentyl ester]",5.48 to 6.48,5.48 to 6.48,6.00 to 7.00,> 6.48,
"CC(C)C[C@H](NCc1cccc(NC(=O)CCCCCCC(=O)NO)c1)C(=O)OC1CCCC1 [Compound 39, (S)-2-[3-(7-Hydroxycarbamoyl-heptanoylamino)-benzylamino]-4-methyl-pentanoic acid cyclopentyl ester]",,5.48 to 6.48,6.00 to 7.00,> 6.48,
"O=C(CCCCCCC(=O)Nc1cncc(CN[C@@H](Cc2ccccc2)C(=O)O)c1)NO [Compound 67, (S)-2-{[5-(7-Hydroxycarbamoyl-heptanoylamino)-pyridin-3-ylmethyl]-amino}-3-phenyl-propionic acid]",< 5.48,,6.00 to 7.00,,
"O=C(CCCCCNC(=O)c1cccc(CN[C@H](C(=O)O)c2ccccc2)c1)NO [Compound 70, (S)-[3-(5-Hydroxycarbamoyl-pentylcarbamoyl)-benzylamino]-phenyl-acetic acid]",< 5.48,,6.00 to 7.00,,
"O=C(CCCCCCC(=O)N1Cc2ccccc2C[C@H]1C(=O)N[C@@H](Cc1ccccc1)C(=O)O)NO [Compound 49, (S)-2-{[(S)-2-(7-Hydroxycarbamoyl-heptanoyl)-1,2,3,4-tetrahydro-isoquinoline-3-carbonyl]amino}-3-phenyl-propionic acid]",,,6.00 to 7.00,,< 5.48
"CC(C)(C)OC[C@H](NCc1ccc(NCc2ccc3cc(C(=O)NO)sc3c2)cc1)C(=O)OC1CCCC1 [Compound 134, (S)-3-tert-Butoxy-2-{4-[(2-hydroxycarbamoyl-benzo[b]thiophen-6-ylmethyl)-amino]-benzylamino}-propionic acid cyclopentyl ester]",,< 5.48,6.00 to 7.00,5.48 to 6.48,
"O=C(CCCCCCC(=O)N1CCCC1C(=O)N[C@H](C(=O)O)c1ccccc1)NO (stereo partly drawn) [Compound 54, (S)-{[1-(7-Hydroxycarbamoyl-heptanoyl)-pyrrolidine-2-carbonyl]-amino}-phenyl-acetic acid]",< 5.48,,< 6.00,,
"CC(C)(C)OC[C@H](NCc1cccc(NC(=O)CCCCCCC(=O)NO)c1)C(=O)O [Compound 33, (S)-3-tert-Butoxy-2-[3-(7-hydroxycarbamoyl-heptanoylamino)-benzylamino]-propionic acid]",< 5.48,,6.00 to 7.00,,
"O=C(CNCc1ccc(CNCc2ccc3cc(C(=O)NO)sc3c2)cc1)OC1CCCC1 [Compound 120, (4-{[(2-Hydroxycarbamoyl-benzo[b]thiophen-6-ylmethyl)-amino]-methyl}-benzylamino)-acetic acid cyclopentyl ester]",,> 6.48,> 7.00,> 6.48,
"CCOC(=O)[C@H](COC(C)(C)C)NCc1cccc(NC(=O)CCCCCCC(=O)NO)c1 [Compound 32, (S)-3-tert-Butoxy-2-[3-(7-hydroxycarbamoyl-heptanoylamino)-benzylamino]-propionic acid ethyl ester]",5.48 to 6.48,5.48 to 6.48,> 7.00,,
"O=C(CCCCCCC(=O)Nc1cccc(CNC(=O)N[C@H](C(=O)OC2CCCC2)c2ccccc2)c1)NO [Compound 79, (S)-{3-[3-(7-Hydroxycarbamoyl-heptanoylamino)-benzyl]-ureido}-phenyl-acetic acid cyclopentyl ester]",,< 5.48,> 7.00,< 5.48,

# Results, then the compound that gave them:
"pIC50 (Hela cancer cell line; Homo sapiens, HeLa)",pIC50 (HUT cancer cell line),pIC50 [1],pIC50 (U937 cancer cell line),pIC50 (Hela cancer cell line),SMILES
< 5.48,5.48 to 6.48,6.00 to 7.00,< 5.48,,"CC(C)C[C@H](NC(=O)c1cccc(NC(=O)CCCCCCC(=O)NO)c1)C(=O)OC1CCCC1 [Compound 62, (S)-2-[3-(7-Hydroxycarbamoyl-heptanoylamino)-benzoylamino]-4-methyl-pentanoic acid cyclopentyl ester]"
< 5.48,5.48 to 6.48,> 7.00,5.48 to 6.48,,"O=C(CCCCCCNC(=O)c1cc2cc(CCC(=O)N[C@@H](Cc3ccccc3)C(=O)OC3CCCC3)ccc2[nH]1)NO [Compound 100, (S)-2-{3-[2-(6-Hydroxycarbamoyl-hexylcarbamoyl)-1H-indol-5-yl]-propionylamino}-3-phenyl-propionic acid cyclopentyl ester]"
,< 5.48,6.00 to 7.00,> 6.48,,"O=C(NO)c1cc2ccc(CNCC3CCC(CN[C@H](C(=O)OC4CCCC4)c4ccccc4)CC3)cc2s1 (stereo partly drawn) [Compound 126, (S)-[(4-{[(2-Hydroxycarbamoyl-benzo[b]thiophen-6-ylmethyl)-amino]-methyl}-cyclohexylmethyl)-amino]phenyl-acetic acid cyclopentyl ester]"
5.48 to 6.48,5.48 to 6.48,6.00 to 7.00,,,"O=C(CCCCCCC(=O)N1CCc2c([nH]c3ccccc23)C1C(=O)N[C@@H](Cc1ccccc1)C(=O)OC1CCCC1)NO (stereo partly drawn) [Compound 64, (S)-2-{[2-(7-Hydroxycarbamoyl-heptanoyl)-2,3,4,9-tetrahydro-1H-beta-carboline-1-carbonyl]-amino}-3-phenyl-propionic acid cyclopentyl ester]"
5.48 to 6.48,5.48 to 6.48,6.00 to 7.00,,,"O=C(CCCCCNC(=O)c1cccc(CN[C@H](C(=O)OC2CCCC2)c2ccccc2)c1)NO [Compound 69, (S)-[3-(5-Hydroxycarbamoyl-pentylcarbamoyl)-benzylamino]-phenyl-acetic acid cyclopentyl ester]"
< 5.48,,< 6.00,,,"O=C(CCCCCCC(=O)N1CCCC1C(=O)N[C@@H](Cc1ccccc1)C(=O)O)NO (stereo partly drawn) [Compound 57, (S)-2-{[1-(7-Hydroxycarbamoyl-heptanoyl)-pyrrolidine-2-carbonyl]-amino}-3-phenyl-propionic acid]"
< 5.48,,> 7.00,,,"O=C(CCCCCCC(=O)N1Cc2[nH]c3ccccc3c2C(C(=O)NC(Cc2ccccc2)C(=O)O)C1)NO [Compound 59, (S)-2-{[(S)-2-(7-Hydroxycarbamoyl-heptanoyl)-2,3,4,9-tetrahydro-1H-bet α-carboline-4-carbonyl]-amino}-3-phenyl-propionic acid]"
< 5.48,,6.00 to 7.00,,,"O=C(CCCCCCC(=O)Nc1cccc(C(=O)N[C@H](C(=O)O)c2ccccc2)c1)NO [Compound 61, (S)-[3-(7-Hydroxycarbamoyl-heptanoylamino)-benzoylamino]phenyl-acetic acid]"
,5.48 to 6.48,6.00 to 7.00,5.48 to 6.48,,"O=C(CCCCCCC(=O)Nc1cccc(COC(=O)N[C@@H](Cc2ccccc2)C(=O)OC2CCCC2)c1)NO [Compound 94, (S)-2-[3-(7-Hydroxycarbamoyl-heptanoylamino)-benzyloxycarbonylamino]-3-phenyl-propionic acid cyclopentyl ester]"
< 5.48,,6.00 to 7.00,,,"O=C(CCCCCCC(=O)Nc1cccc(CN[C@@H](CCc2ccccc2)C(=O)O)c1)NO [Compound 30, (S)-2-[3-(7-Hydroxycarbamoyl-heptanoylamino)-benzylamino]-4-phenyl-butyric acid]"
